Literature values in US20040248850A1, “Compounds for the treatment of HIV infection” (Kemia, Inc., priority 2003, published 2004).

Test system: Human Immunodeficiency Virus Type 1
Details: in cell culture

enfuvirtide
EC50: 1 ng/mL
